Measurements: patent publication US20020035061A1, “COMPOSITIONS AND METHODS FOR TREATING INFECTIONS USING CATIONIC PEPTIDES ALONE OR IN COMBINATION WITH ANTIBIOTICS” (priority 1996, published 2002)
Like-named read-outs stand apart in the source and are kept apart here.

How the values were obtained:
Type in all cases: cell-based
A. calcoaceticus = tested on: A. calcoaceticus
E. cloacae = E. cloacae strain ECL007
E. coli = tested on: E. coli
E. faecalis = tested on: E. faecalis
E. faecium = tested on: E. faecium
K. pneumoniae = tested on: K. pneumoniae
P. aeruginosa = tested on: P. aeruginosa
S. aureus = tested on: S. aureus
S. maltophilia = tested on: S. maltophilia
S. marcescens = tested on: S. marcescens
S. epidermidis = tested on: S. epidermidis

| Sequence | MIC (A. calcoaceticus; A. calcoaceticus strain AC001) | MIC (E. cloacae) | MIC (E. coli; E. coli strain ECO002) | MIC (E. faecalis; E. faecalis strain EFS002) | MIC (E. faecium; E. faecium strain EFM003) | MIC (K. pneumoniae; K. pneumoniae strain KP002) | MIC (S. aureus; S. aureus strain SA009) | MIC (S. maltophilia; S. maltophilia strain SMA001) | MIC (S. marcescens; S. marcescens strain SMS004) | MIC (E. faecium; E. faecium strain EFM002) | MIC (P. aeruginosa; P. aeruginosa strain PA004) | MIC (A. calcoaceticus; A. calcoaceticus strain AC002) | MIC (S. epidermidis; S. epidermidis strain SE010) | MIC (P. aeruginosa; P. aeruginosa strain PA005) | MIC (S. epidermidis; S. epidermidis strain SE002) | MIC (S. maltophilia; S. maltophilia strain SMA002) | MIC (K. pneumoniae; K. pneumoniae strain KP001) | MIC (S. aureus; S. aureus strain SA005) | also measured |
| --- | --- | --- | --- | --- | --- | --- | --- | --- | --- | --- | --- | --- | --- | --- | --- | --- | --- | --- | --- |
| PWWPWRRK [MBI 11D3CN] | >128 µg/mL | >128 µg/mL | 64 µg/mL | 32 µg/mL | 8 µg/mL | >128 µg/mL | 8 µg/mL | 64 µg/mL | >128 µg/mL | – | – | – | – | – | – | – | – | – | MIC (P. aeruginosa; P. aeruginosa strain PA024): >128 µg/mL |
| ILKKWPWWPWRRKMILKKAGS [MBI 11D4CN] | >64 µg/mL | >64 µg/mL | – | 16 µg/mL | – | >64 µg/mL | 4 µg/mL | >64 µg/mL | >64 µg/mL | 1 µg/mL | >64 µg/mL | – | – | – | – | – | – | – | MIC (E. coli; E. coli strain ECO003): 64 µg/mL |
| ILKKWPWWPWRRIMILKKAGS [MBI 11D6CN] | – | >32 µg/mL | 32 µg/mL | 4 µg/mL | 1 µg/mL | >64 µg/mL | 8 µg/mL | >64 µg/mL | >64 µg/mL | – | – | 4 µg/mL | 4 µg/mL | – | – | – | – | – | MIC (P. aeruginosa; P. aeruginosa strain PA024): >64 µg/mL |
| ILKKWPWWVWRRK [MBI 11F2CN] | – | – | 8 µg/mL | 32 µg/mL | – | 128 µg/mL | – | – | >128 µg/mL | 4 µg/mL | – | 4 µg/mL | – | >128 µg/mL | 4 µg/mL | 64 µg/mL | – | – | MIC (S. aureus; S. aureus strain SA012): 4 µg/mL |
| ILKKWPWWPWRRK [MBI 11E2CN] | – | >128 µg/mL | 8 µg/mL | 32 µg/mL | – | 64 µg/mL | – | 64 µg/mL | >128 µg/mL | – | – | 4 µg/mL | 4 µg/mL | – | – | – | – | – | MIC (E. faecium; E. faecium strain EFM001): 16 µg/mL; MIC (P. aeruginosa; P. aeruginosa strain PA001): >128 µg/mL; MIC (S. aureus; S. aureus strain SA016): 2 µg/mL |
| ILKKWAWWPWRRK [MBI 11C3CN] | – | >128 µg/mL | 16 µg/mL | 32 µg/mL | – | – | – | – | >128 µg/mL | 1 µg/mL | – | 4 µg/mL | – | >128 µg/mL | 2 µg/mL | 64 µg/mL | 128 µg/mL | 2 µg/mL | – |
| ILKWPWWPWRK [MBI 11B5CN] | – | >128 µg/mL | – | 16 µg/mL | – | – | – | – | – | 1 µg/mL | >128 µg/mL | 4 µg/mL | 1 µg/mL | – | – | 64 µg/mL | 16 µg/mL | 2 µg/mL | MIC (E. coli; E. coli strain ECO005): 16 µg/mL; MIC (E. faecalis; E. faecalis strain EFS001): 2 µg/mL; MIC (E. faecalis; E. faecalis strain EFS008): 8 µg/mL; MIC (S. aureus; S. aureus strain SA014): 2 µg/mL; MIC (S. aureus; S. aureus strain SA093): 1 µg/mL; MIC (S. marcescens; S. marcescens strain SMS003): >128 µg/mL |
| ILKKWPWPWRRK [MBI 11A4CN] | – | >128 µg/mL | – | 64 µg/mL | – | – | – | – | >128 µg/mL | – | >128 µg/mL | 8 µg/mL | – | – | 8 µg/mL | >128 µg/mL | >128 µg/mL | 2 µg/mL | MIC (E. coli; E. coli strain ECO003): 32 µg/mL; MIC (E. faecium; E. faecium strain EFM001): 32 µg/mL |
| ILKKWPWWAWRRK [MBI 11C4CN] | – | >128 µg/mL | – | 32 µg/mL | 2 µg/mL | – | 4 µg/mL | – | >128 µg/mL | – | – | 4 µg/mL | – | >128 µg/mL | 4 µg/mL | 64 µg/mL | >128 µg/mL | – | MIC (E. coli; E. coli strain ECO005): 32 µg/mL |
| WWKKWPWWPWRRK [MBI 11C5CN] | 32 µg/mL | >128 µg/mL | – | 16 µg/mL | 2 µg/mL | 16 µg/mL | 2 µg/mL | – | >128 µg/mL | – | – | – | – | – | 2 µg/mL | 16 µg/mL | – | – | MIC (E. coli; E. coli strain ECO001): 8 µg/mL; MIC (P. aeruginosa; P. aeruginosa strain PA003): 64 µg/mL |
